From patent US20250177422A1 (ZYLORION HEALTH INC., priority 2023, published 2025)

Experiments:
BDNF = assay: Brain levels of BDNF in mice after acute treatment; type: in vivo; conditions: 1 hour after oral administration, Co-crystal Form A 3 mg/kg, Aripiprazole 0.3 mg/kg, FIG. 5
active neurons = assay: Neuronal activation in mice (number of active neurons); conditions: 21 days oral, co-crystal form A 3 mg/kg, aripiprazole 0.3 mg/kg, FIG. 7
Experimental: For immunohistochemistry sampling, EdU (5-Ethynyl-2′-deoxyuridine, Lumiprobe, 100 μg/g) was injected together with the drugs for the first 7 days. On the day following the 14-day treatment period, the brains of the mice were dissected for subsequent analyses, including immunohistochemistry and electrophysiology (E-phys).

[1] = tested on: neuronal progenitor/stem cell levels in mice brain; assay: Neuronal progenitor/stem cell levels in mice brain (immunohistochemistry); type: in vivo; conditions: 14 days oral; co-crystal form A 3 mg/kg, aripiprazole 0.3 mg/kg; FIG. 6
mice = assay: Cognitive performance, the Y-maze; type: in vivo; conditions: oral, 15 days, FIG. 4
Experimental: Cognitive performance, the Y-maze. Mice will be acclimated to a Y-maze having two familiar arms and one unfamiliar arm 1 day prior to testing (i.e., day-1). One the days of testing mice will be placed in the Y-maze and allowed to freely explore for 5 minutes. Behaviours scored will include total locomotion, time spent in each arm, number of arm entries, and correct alternations between the novel arm and familiar arms. A pro-cognitive effect will be reflected by increased time spent in the novel arm and increased percent correct alternations.

O=C1CCc2ccc(OCCCCN3CCN(c4cccc(Cl)c4Cl)CC3)cc2N1 [aripiprazole]
brain levels of BDNF (BDNF): significant increase in brain levels of BDNF
change in neuronal activation (number of active neurons) (active neurons): significant increase
neuronal progenitor/stem cell levels in mice brain [1]: no significant effect
short-term and working memory (Y-maze), compared to control (mice): smaller but significant increase
